# Measurements from patent US12630547B2, “RAS protein degraders, pharmaceutical compositions thereof, and their therapeutic applications” (BioTheryX, Inc., priority 2019, dated 2026).
# Experiments:
# Assay type in all cases: cell-based
# [1] = tested on: MOLM-13 cells; assay: Cell viability assay (CELLTITER-GLO), MOLM-13 cells; conditions: Homo sapiens, MOLM-13, 72 h; Table 2; compound at 10 μM, 3 days; read-out: Effect on MOLM-13 cell viability (% DMSO)
# Procedure, shortened: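 MV-4-11 and MOLM-13 cells in RPMI 1640/10% FBS were seeded at 4,000 cells/well and exposed to compound (10 μM or 1 μM) or DMSO for 3 days at 37 °C, 5% CO2. CellTiter-Glo luminescence gave viability as % DMSO, binned into ranges A (<10%) through D (≥50%).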
# [2] = tested on: H358 cells; assay: Cell viability assay (CELLTITER-GLO), H358 cells; conditions: Table 4; 3 days
# Description: (§1) MOLM-13 cells, MV-4-11 cells, H23, and H358 cells were independently cultured in RPMI 1640 media supplemented with 10% fetal bovine serum, streptomycin and penicillin. The cells were plated in white walled 96-well plates at 4,000 cells/well. The cells were incubated in DMSO (control) or a compound for 3 days at 37° C. under 5% CO2. A CELLTITER-GLO® reagent (100 μL) was then added to each well. After a 10 min incubation with shaking, luminescence was measured using an ENVISION® multimode plate reader.
# In Tables 1 and 2, each compound was tested at 10 μM; and in Table 3, each compound was tested at 1 μM. In Tables 1 to 3, the cell viability values as % DMSO are reported as “A,” “B,” “C,” or “D;” where “A” represents a % viability value of less than 10%; “B” represents a % viability value of no less than 10% and less than 25%; “C” represents a % viability value of no less than 25% and less than 50%; and “D” represents a % viability value of no less than 50%. Compound A is
# (§2) IC50 values are summarized in Table 4, where “A” represents an IC50 value of no greater than 1 μM, “B” represents an IC50 value of greater than 1 μM and no greater than 5 μM, “C” represents an IC50 value of greater than 5 μM and no greater than 10 μM, and “D” represents an IC50 value of greater than 10 μM.
# [3] = tested on: H23 cells; assay: Cell viability assay (CELLTITER-GLO), H23 cells; conditions: Table 4; 3 days
# Description: as §1, §2
Structure (SMILES),"Inhibition of H358 cells, IC50 (class) [2]",viability at 10 µM [1],"Inhibition of H23 cells, IC50 (class) [3]"
"C=C(Cl)C(=O)N1CCN(c2ncnc3c(F)c(-c4c(F)cccc4OCCCCCCCN4CCC(c5cc(F)cc6c5CN(C5CCC(=O)NC5=O)C6=O)CC4)c(Cl)cc23)CC1 (stereo not drawn) [Compound 43, 3-(4-(1-(7-(2-(6-Chloro-4-(4-(2-chloroacryloyl)piperazin-1-yl)-8-fluoroquinazolin-7-yl)-3-fluorophenoxy)heptyl)piperidin-4-yl)-6-fluoro-1-oxoisoindolin-2-yl)piperidine-2,6-dione]",A′,< 10%,A′
"CCC(=O)N1CC(N2Cc3ccc(-c4cc(O)cc5ccccc45)cc3N(CCCCCCCN3CCC(c4cc(F)cc5c4CN(C4CCC(=O)NC4=O)C5=O)CC3)C2=O)C1 (stereo not drawn) [Compound 44, 3-(6-Fluoro-4-(1-(7-(7-(3-hydroxynaphthalen-1-yl)-2-oxo-3-(1-propionylazetidin-3-yl)-3,4-dihydroquinazolin-1(2H)-yl)heptyl)piperidin-4-yl)-1-oxoisoindolin-2-yl)piperidine-2,6-dione]",C′,< 10%,B′
"C=CC(=O)N1CC(N2Cc3ccc(-c4cc(O)cc5ccccc45)cc3N(CCOCCOCCNc3cccc4c3C(=O)N(C3CCC(=O)NC3=O)C4=O)C2=O)C1 (stereo not drawn) [Compound 45, 4-((2-(2-(2-(3-(1-Acryloylazetidin-3-yl)-7-(3-hydroxynaphthalen-1-yl)-2-oxo-3,4-dihydroquinazolin-1(2H)-yl)ethoxy)ethoxy)ethyl)amino)-2-(2,6-dioxopiperidin-3-yl)isoindoline-1,3-dione]",C′,≥ 50%,B′
"CCC(=O)N1CC(N2Cc3ccc(-c4cc(O)cc5ccccc45)cc3N(CCNCCCCCCCN3CCC(c4cc(F)cc5c4CN(C4CCC(=O)NC4=O)C5=O)CC3)C2=O)C1 (stereo not drawn) [Compound 46, 3-(6-Fluoro-4-(1-(7-((2-(7-(3-hydroxynaphthalen-1-yl)-2-oxo-3-(1-propionylazetidin-3-yl)-3,4-dihydroquinazolin-1(2H)-yl)ethyl)amino)heptyl)piperidin-4-yl)-1-oxoisoindolin-2-yl)piperidine-2,6-dione]",D′,≥ 50%,D′
"C=CC(=O)N1C[C@H](C)N(c2nc(OCCOCCOCCOCCNc3cccc4c3C(=O)N(C3CCC(=O)NC3=O)C4=O)nc3c(F)c(-c4c(O)cccc4F)c(Cl)cc23)C[C@H]1C (stereo partly drawn) [Compound 58, 4-((2-(2-(2-(2-((4-((2S,5R)-4-Acryloyl-2,5-dimethylpiperazin-1-yl)-6-chloro-8-fluoro-7-(2-fluoro-6-hydroxyphenyl)quinazolin-2-yl)oxy)ethoxy)ethoxy)ethoxy)ethyl)amino)-2-(2,6-dioxopiperidin-3-yl)isoindoline-1,3-dione]",B′,< 10%,B′

# Further lines, with some results ahead:
"Inhibition of H358 cells, IC50 (class) [2]",Structure (SMILES),viability at 10 µM [1],"Inhibition of H23 cells, IC50 (class) [3]"
B′,"CCS(=O)(=O)N1CCN(c2ncnc3c(F)c(-c4c(F)cccc4OCCCCCCCN4CCC(c5cc(F)cc6c5CN(C5CCC(=O)NC5=O)C6=O)CC4)c(Cl)cc23)CC1 (stereo not drawn) [Compound 59, 3-(4-(1-(7-(2-(6-Chloro-4-(4-(ethylsulfonyl)piperazin-1-yl)-8-fluoroquinazolin-7-yl)-3-fluorophenoxy)heptyl)piperidin-4-yl)-6-fluoro-1-oxoisoindolin-2-yl)piperidine-2,6-dione]",< 10%,B′
B′,"CCC(=O)N1CCN(c2ncnc3c(F)c(-c4c(F)cccc4OCCCCCCCCCN4CCC(c5cc(F)cc6c5CN(C5CCC(=O)NC5=O)C6=O)CC4)c(Cl)cc23)CC1 (stereo not drawn) [Compound 61, 3-(4-(1-(9-(2-(6-Chloro-8-fluoro-4-(4-propionylpiperazin-1-yl)quinazolin-7-yl)-3-fluorophenoxy)nonyl)piperidin-4-yl)-6-fluoro-1-oxoisoindolin-2-yl)piperidine-2,6-dione]",< 10%,B′
B′,"C=CC(=O)N1CCN(c2ncnc3c(F)c(-c4c(F)cccc4OCCCNCc4ccc(COc5cccc6c5CN([C@H]5CCC(=O)NC5=O)C6=O)cc4)c(Cl)cc23)CC1 [Compound 62, (3S)-3-(4-((4-(((3-(2-(4-(4-Acryloylpiperazin-1-yl)-6-chloro-8-fluoroquinazolin-7-yl)-3-fluorophenoxy)propyl)amino)methyl)benzyl)oxy)-1-oxoisoindolin-2-yl)piperidine-2,6-dione]",< 10%,B′
C′,"CCC(=O)N1CCN(c2ncnc3c(F)c(-c4c(F)cccc4OCCCNCc4ccc(COc5cccc6c5CN([C@H]5CCC(=O)NC5=O)C6=O)cc4)c(Cl)cc23)CC1 [Compound 63, (3S)-3-(4-((4-(((3-(2-(6-Chloro-8-fluoro-4-(4-propionylpiperazin-1-yl)quinazolin-7-yl)-3-fluorophenoxy)propyl)amino)methyl)benzyl)oxy)-1-oxoisoindolin-2-yl)piperidine-2,6-dione]",10 to 25%,C′
B′,"C=CC(=O)N1C[C@@H]2C(=O)N(C)c3cnc4c(F)c(-c5c(F)cccc5OCCCCCCCN5CCC(c6cc(F)cc7c6CN(C6CCC(=O)NC6=O)C7=O)CC5)c(Cl)cc4c3N2C[C@H]1C (stereo partly drawn) [Compound 64, 3-(4-(1-(7-(2-((2R,4aR)-3-Acryloyl-11-chloro-9-fluoro-2,6-dimethyl-5-oxo-2,3,4,4a,5,6-hexahydro-1H-pyrazino[1′,2′:4,5]pyrazino[2,3-c]quinolin-10-yl)-3-fluorophenoxy)heptyl)piperidin-4-yl)-6-fluoro-1-oxoisoindolin-2-yl)piperidine-2,6-dione]",< 10%,A′
B′,"CCC(=O)N1C[C@@H]2C(=O)N(C)c3cnc4c(F)c(-c5c(F)cccc5OCCCCCCCN5CCC(c6cc(F)cc7c6CN(C6CCC(=O)NC6=O)C7=O)CC5)c(Cl)cc4c3N2C[C@H]1C (stereo partly drawn) [Compound 65, 3-(4-(1-(7-(2-((2R,4aR)-11-Chloro-9-fluoro-2,6-dimethyl-5-oxo-3-propionyl-2,3,4,4a,5,6-hexahydro-1H-pyrazino[11′,2′:4,5]pyrazino[2,3-c]quinolin-10-yl)-3-fluorophenoxy)heptyl)piperidin-4-yl)-6-fluoro-1-oxoisoindolin-2-yl)piperidine-2,6-dione]",< 10%,B′
A′,"C=CC(=O)N1C[C@@H]2C(=O)N(CCCCCCCN3CCC(c4cc(F)cc5c4CN(C4CCC(=O)NC4=O)C5=O)CC3)c3cnc4c(F)c(-c5c(O)cccc5F)c(Cl)cc4c3N2C[C@H]1C (stereo partly drawn) [Compound 66, 3-(4-(1-(7-((2R,4aR)-3-Acryloyl-11-chloro-9-fluoro-10-(2-fluoro-6-hydroxyphenyl)-2-methyl-5-oxo-1,2,3,4,4a,5-hexahydro-6H-pyrazino[1′,2′:4,5]pyrazino[2,3-c]quinolin-6-yl)heptyl)piperidin-4-yl)-6-fluoro-1-oxoisoindolin-2-yl)piperidine-2,6-dione]",< 10%,B′
